Laboratory results reported in patent US8841132B2, “Method for detecting compounds containing sulfenic acid using a 1,3-cyclohexanedione-based probe” (Wake Forest University Health Sciences, priority 2004, dated 2014).

Columns and labels:
[1] = target: T1, sulfenic acid form of C165S AhpC (Salmonella typhimurium, UniProt P0A251, C166S); assay: Labeling of sulfenic acid-containing C165S AhpC, adducts analysed by ESI-MS; type: biochemical; details: for Observed increase in mass of product compared with R—SH form / covalent adduct formation with the sulfenic acid form of the peroxidase: ESI-MS, 5 mM reagent; for Observed increase in mass of product compared with R—SH form: 60 min, room temperature; for covalent adduct formation with the sulfenic acid form of the peroxidase: aqueous neutral pH buffer; for labeling of the protein when 1:1 mixtures of 6 and 7 are added: ESI-MS of intact proteins
T1 construct: made in house
Method: (§1) Reactivity of new compounds toward cysteine sulfenic acids in proteins. To test for the reactivity of 6 and 7 toward protein sulfenic acids, a mutant, cysteine-dependent peroxidase enzyme was used in which the oxidized, sulfenic acid form of the cysteinyl redox center is stabilized, yet accessible (the C165S mutant of AhpC from Salmonella typhimurium, a peroxiredoxin) (3, 9, 14).
[drawing 11] washed proteins following incubations with the labeling agents (FIG. 1 and data not shown). As illustrated in FIG. 1 and summarized in Table 1, mass spectrometry results were completely consistent with the expected reactivity and products generated with the sulfenic acid-containing protein using dimedone, 1,3-cyclohexadione and our two new labeling agents (6 and 7). […] Under the conditions used, the sulfenic acid form of the protein either reacts with the reagent or is further oxidized during the workup or analysis of the sample, and is therefore not observed. In a subsequent experiment
Generation of pure, sulfenic acid-containing C165S AhpC. The C165S mutant of AhpC was expressed in bacteria and purified in the presence of 5 mM 1,4-dithiothreitol (added to all buffers) essentially as described previously (9). Purification of wild type AhpC was also carried out as previously described (10). For generation of the sulfenic acid form of C165S AhpC, thawed enzyme in 25 mM phosphate buffer at pH 7, containing 1 mM EDTA, was washed free of the dithiothreitol and transferred into fresh buffer using a PD-10 column (Amersham Biosciences), and pooled fractions were transferred to an anerobic cuvette. The protein solution (160 nmol in 0.60 mL) was made anaerobic by repeated cycles of argon and vacuum over about 30 min, then rapidly titrated with 11 mM hydrogen peroxide to give a maximal absorbance signal at ˜367 nm for the sulfenate anion as described previously (3, 4). In subsequent experiments, optimal sulfenic acid formation was observed by adding and mixing the hydrogen peroxide much more slowly (additions of about 0.05 eq and thorough mixing every ˜1 min) and quantitating the sulfenic acid formed using a freshly-prepared 2-nitro-5-thiobenzoate (TNB) solution (0.28 mL) and a 60 μL aliquot of the protein removed anaerobically from the cuvette (3, 4). Using this method, ˜73% of the protein was converted to the sulfenic acid form after addition of 1.08 eq of hydrogen peroxide. Protein was kept in the anaerobic cuvette at room temperature for several hours before conducting experiments with no loss in sulfenic acid content.
(§2) Labeling of sulfenic acid-containing C165S AhpC for spectral and mass spectrometric analysis. The pure, oxidized enzyme (32 μL, 6 nmol each) from the anaerobic cuvette was added to argon-flushed 500 μL Eppendorf tubes containing the compound of choice (either dimethylsulfoxide alone, or dimethylsulfoxide into which dimedone, 1,3-cyclohexanedione, 6 or 7 had been dissolved) to give a final concentration of 5 mM for the added reagent in final volumes of 50 μL, and the tubes were flushed again with argon before closing. Other redox forms of C165S AhpC or the wild-type enzyme were also tested for reactivity with one or more of these four compounds. Approximate 100 mM stock solutions of 6 or 7 in dimethylsulfoxide were standardized using expected extinction coefficients of 5,700 or 25,000 M^−1 cm^−1, respectively, for the esterified isatoic acid conjugate or the methoxycoumarin conjugate in methanol (11). Samples were incubated at room temperature for 60 min, then transferred to Apollo ultrafiltration devices (30K cutoff, Orbital Biosciences, Topsfield, Mass.), washed with 5.5 mL 10 mM ammonium bicarbonate and reconcentrated to about 50 μL, for a total of four washes (>10^8-fold dilution of the initial small molecule components).
Mass spectrometric and spectral analyses of adducts with the sulfenic acid-containing form of C165S AhpC. […]

[2] = system: thiol, disulfide or hyperoxidized forms of AhpC (wild type or C165S); assay: Control reactions with other redox forms of AhpC (ESI-MS adduct detection); type: biochemical, Salmonella typhimurium; details: for reaction with protein amine groups: reduced or oxidized wild type or reduced C165S AhpC; for reactivity of thiol, disulfide or hyperoxidized forms of AhpC (ESI-MS-detectable adduct formation): wild type or C165S
From the text: as §1
The thiol group of the reduced protein and the oxidized, disulfide-bonded form of wild type AhpC were also unreactive toward these compounds, as confirmed by electrospray ionization mass spectrometry (ESI-MS) of the ammonium bicarbonate-washed
(§3) Specificity of fluorescent, cyclohexadione-derived regents toward sulfenic acids in proteins. The known reactivity of the nucleophilic center of dimedone is toward cysteine sulfenic acids and aldehydes (15, 16). […] To test for general cross-reactivity of these reagents with other oxidized sulfur-containing functional groups, we tested the reactivity of dimedone, as a model reagent, with a S-nitrosothiol and two sulfoxides.
as §2

[3] = Control reaction with amine
[4] = Cross-reactivity with S-nitrosothiol (absorbance spectroscopy); details: one hour, room temperature
From the text: as §3

[5] = Cross-reactivity with sulfoxide (NMR, spectroscopic and chemical isolation); details: aqueous solution
From the text: as §3

[6] = Control reaction with aldehyde
[7] = cited from earlier work

T1 sequence (P0A251 whole entry C166S): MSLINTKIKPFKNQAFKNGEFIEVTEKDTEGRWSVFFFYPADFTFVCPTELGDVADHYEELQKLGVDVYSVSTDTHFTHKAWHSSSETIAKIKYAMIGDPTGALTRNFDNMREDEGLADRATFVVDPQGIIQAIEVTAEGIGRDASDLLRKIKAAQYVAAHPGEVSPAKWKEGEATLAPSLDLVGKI

SMILES | reactivity toward cysteine sulfenic acids relative to dimedone [1] | Observed increase in mass of product compared with R—SH form [1] [amu] | covalent adduct formation with the sulfenic acid form of the peroxidase [1] | labeling of the protein when 1:1 mixtures of 6 and 7 are added [1] | reaction with protein amine groups [2] | reactivity of thiol, disulfide or hyperoxidized forms of AhpC (ESI-MS-detectable adduct formation) [2] | reaction with benzylamine ([3]; aqueous ethanol) | reaction with benzylamine ([3]; organic solvent) | reaction with S-nitrosoglutathione [4] | reaction with dimethyl sulfoxide [5] | reaction with methionine sulfoxide [5] | reaction with butyraldehyde ([6]; in the presence of piperidine, 50° C., aqueous ethanol) | reaction with butyraldehyde ([6]; room temperature, absence of base) | pka of active methylene group [7]
O=C1CCCC(=O)C1 [1,3-cyclohexadione, 1,3-cyclohexanedione] | at least equivalent reactivity | 109.2 |  |  |  |  |  |  |  |  |  |  |  | 
CNc1ccccc1C(=O)OCCCC1CCC(=O)CC1=O (stereo not shown) [compound 6, 3-(2,4-Dioxocyclohexyl)propyl 2-(methylamino)benzoate] |  | 300.7 | gave covalent adducts | approximately equal labeling | do not react | lack of reactivity |  |  |  |  |  |  |  | 
COc1ccc2cc(NC(=O)OCCCC3CCC(=O)CC3=O)c(=O)oc2c1 (stereo not shown) [compound 7, 3-(2,4-Dioxocyclohexyl)propyl 7-methoxy-2-oxo-2H-chromen-3-ylcarbamate] |  | 384.5 | gave covalent adducts | approximately equal labeling | do not react | lack of reactivity |  |  |  |  |  |  |  | 
CC1(C)CC(=O)CC(=O)C1 [dimedone, 5,5-dimethyl-1,3-cyclohexanedione] |  | 137.3 |  |  |  | lack of reactivity | no reaction occurs | condenses with benzylamine to form an imine | fails to react | does not react | does not react | reacts | fails to react | 5.15
